Assay results from ChEMBL document CHEMBL1136936, “Discovery of N-{N-[(3-cyanophenyl)sulfonyl]-4(R)-cyclobutylamino-(L)-prolyl}-4-[(3',5'-dichloroisonicotinoyl) amino]-(L)-phenylalanine (MK-0668), an extremely potent and orally active antagonist of very late antigen-4” (J Med Chem, 2009).
pIC50: −log10 of the molar value.

Key:
Integrin alpha-4 [1] = target: T1, Integrin alpha-4 (Homo sapiens, UniProt P13612); assay: Displacement of [125I]-(S)-2-((2S,4R)-4-(azetidin-1-yl)-1-(3-iodophenylsulfonyl)pyrrolidine-2-carboxamido)-3-(4-(3,5-dichloroisonicotinamido)phenyl)propanoic acid from VLA4 in human Jurkat cells washed with Hepes buffer by competitive binding assay; assay type: cell-based
T1 sequence (P13612 whole entry): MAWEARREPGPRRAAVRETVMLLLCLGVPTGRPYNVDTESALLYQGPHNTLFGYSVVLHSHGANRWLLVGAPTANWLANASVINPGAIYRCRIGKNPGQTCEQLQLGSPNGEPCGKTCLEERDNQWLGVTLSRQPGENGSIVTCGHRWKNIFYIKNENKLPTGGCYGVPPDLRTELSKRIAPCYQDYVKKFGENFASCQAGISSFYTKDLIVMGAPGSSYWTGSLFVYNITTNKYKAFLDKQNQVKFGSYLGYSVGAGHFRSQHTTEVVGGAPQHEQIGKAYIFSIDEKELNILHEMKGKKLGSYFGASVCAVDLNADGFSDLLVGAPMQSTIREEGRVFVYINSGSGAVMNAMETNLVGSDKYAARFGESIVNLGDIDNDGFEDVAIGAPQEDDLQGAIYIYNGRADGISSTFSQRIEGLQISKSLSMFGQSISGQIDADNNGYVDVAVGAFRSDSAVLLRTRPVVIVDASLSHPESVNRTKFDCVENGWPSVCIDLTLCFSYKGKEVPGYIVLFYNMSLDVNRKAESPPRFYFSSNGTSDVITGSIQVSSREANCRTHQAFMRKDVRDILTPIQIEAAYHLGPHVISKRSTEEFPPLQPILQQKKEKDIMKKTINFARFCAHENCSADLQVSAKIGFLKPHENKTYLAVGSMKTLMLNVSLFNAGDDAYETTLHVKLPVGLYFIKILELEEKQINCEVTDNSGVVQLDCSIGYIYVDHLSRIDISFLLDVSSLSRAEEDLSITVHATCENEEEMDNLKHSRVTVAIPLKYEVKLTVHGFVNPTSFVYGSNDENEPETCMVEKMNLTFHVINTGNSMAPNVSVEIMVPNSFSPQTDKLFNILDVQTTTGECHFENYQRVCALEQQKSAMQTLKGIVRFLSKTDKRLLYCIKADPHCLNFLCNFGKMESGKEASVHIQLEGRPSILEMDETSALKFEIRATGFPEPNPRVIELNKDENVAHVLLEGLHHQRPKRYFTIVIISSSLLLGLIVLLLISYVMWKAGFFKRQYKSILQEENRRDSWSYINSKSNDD

Integrin alpha-4 [2] = target: T1, Integrin alpha-4; assay: Displacement of [125I]-(S)-2-((2S,4R)-4-(azetidin-1-yl)-1-(3-iodophenylsulfonyl)pyrrolidine-2-carboxamido)-3-(4-(3,5-dichloroisonicotinamido)phenyl)propanoic acid from VLA4 in human whole blood by competitive binding assay; assay type: tissue-based
Rattus norvegicus [3] = assay: Ex vivo receptor occupancy at VLA4 in rat at 0.5 mg/kg, iv after 8 hrs by [125I]- -(S)-2-((2S,4R)-4-(azetidin-1-yl)-1-(3-iodophenylsulfonyl)pyrrolidine-2-carboxamido)-3-(4-(3,5-dichloroisonicotinamido)phenyl)propanoic acid competitive binding assay; assay type: functional
[4] = Plasma Clearance in rat at 0.5 mg/kg, iv; assay type: ADME, organism-based; set-up: dose 0.5 mg/kg, route intravenous
[5] = Half life in rat at 0.5 mg/kg, iv; assay type: ADME, organism-based; set-up: dose 0.5 mg/kg, route intravenous; conditions: in vivo
Rattus norvegicus [6] = assay: Tmin in rat at 0.5 mg/kg, iv; assay type: ADME, organism-based; set-up: dose 0.5 mg/kg, route intravenous; conditions: in vivo
Canis familiaris [7] = assay: Ex vivo receptor occupancy at VLA4 in dog at 0.75 mg/kg, iv after 8 hrs by [125I]- -(S)-2-((2S,4R)-4-(azetidin-1-yl)-1-(3-iodophenylsulfonyl)pyrrolidine-2-carboxamido)-3-(4-(3,5-dichloroisonicotinamido)phenyl)propanoic acid competitive binding assay; assay type: functional, Canis lupus familiaris
[8] = Plasma Clearance in dog at 0.75 mg/kg, iv; assay type: ADME, organism-based, Canis lupus familiaris; set-up: dose 0.75 mg/kg, route intravenous
[9] = Half life in dog at 0.75 mg/kg, iv; assay type: ADME, organism-based, Canis lupus familiaris; set-up: dose 0.75 mg/kg, route intravenous; conditions: in vivo
Canis familiaris [10] = assay: Tmin in dog at 0.75 mg/kg, iv; assay type: ADME, organism-based, Canis lupus familiaris; set-up: dose 0.75 mg/kg, route intravenous; conditions: in vivo
Rhesus monkey [11] = assay: Ex vivo receptor occupancy at VLA4 in rhesus monkey at 0.75 mg/kg, iv after 8 hrs by [125I]- -(S)-2-((2S,4R)-4-(azetidin-1-yl)-1-(3-iodophenylsulfonyl)pyrrolidine-2-carboxamido)-3-(4-(3,5-dichloroisonicotinamido)phenyl)propanoic acid competitive binding assay; assay type: functional, Macaca mulatta
[12] = Plasma Clearance in rhesus monkey at 0.75 mg/kg, iv; assay type: ADME, organism-based, Macaca mulatta; set-up: dose 0.75 mg/kg, route intravenous
[13] = Half life in rhesus monkey at 0.75 mg/kg, iv; assay type: ADME, organism-based, Macaca mulatta; set-up: dose 0.75 mg/kg, route intravenous; conditions: in vivo
Rhesus monkey [14] = assay: Tmin in rhesus monkey at 0.75 mg/kg, iv; assay type: ADME, organism-based, Macaca mulatta; set-up: dose 0.75 mg/kg, route intravenous; conditions: in vivo
Rattus norvegicus [15] = assay: Ex vivo receptor occupancy at VLA4 in rat at 1 mg/kg, po after 8 hrs by [125I]- -(S)-2-((2S,4R)-4-(azetidin-1-yl)-1-(3-iodophenylsulfonyl)pyrrolidine-2-carboxamido)-3-(4-(3,5-dichloroisonicotinamido)phenyl)propanoic acid competitive binding assay; assay type: functional
[16] = target: Integrin alpha-4 (Homo sapiens) (UniProt P13612); assay: Binding affinity to human VLA4 at 37 degC after 3 hrs; set-up: concentration or dose not given beside the values
Cytochrome P450 3A4 = Cytochrome P450 3A4 (Homo sapiens, UniProt P08684); assay: Inhibition of human CYP3A4; assay type: ADME
Cytochrome P450 3A4, sequence (P08684 whole entry): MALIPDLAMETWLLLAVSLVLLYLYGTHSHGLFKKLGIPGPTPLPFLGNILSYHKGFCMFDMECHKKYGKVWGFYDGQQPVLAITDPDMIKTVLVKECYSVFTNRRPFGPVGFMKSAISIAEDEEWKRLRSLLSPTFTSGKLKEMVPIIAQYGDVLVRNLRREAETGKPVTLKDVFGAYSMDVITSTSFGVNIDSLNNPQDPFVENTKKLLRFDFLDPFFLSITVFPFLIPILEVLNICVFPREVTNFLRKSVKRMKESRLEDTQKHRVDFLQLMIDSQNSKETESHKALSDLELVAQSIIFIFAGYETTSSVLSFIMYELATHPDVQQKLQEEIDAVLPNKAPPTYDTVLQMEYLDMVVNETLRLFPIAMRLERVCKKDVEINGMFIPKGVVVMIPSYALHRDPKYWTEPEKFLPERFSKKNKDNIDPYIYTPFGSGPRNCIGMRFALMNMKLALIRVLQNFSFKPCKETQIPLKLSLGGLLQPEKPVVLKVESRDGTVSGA

[17] = target: Integrin alpha-4 (Homo sapiens) (UniProt P13612); assay: Binding affinity to human VLA4 at 37 degC after 1 hr
Rattus norvegicus [18] = assay: Ex vivo receptor occupancy at VLA4 in rat at 5 mg/kg, po after 12 hrs by [125I]- -(S)-2-((2S,4R)-4-(azetidin-1-yl)-1-(3-iodophenylsulfonyl)pyrrolidine-2-carboxamido)-3-(4-(3,5-dichloroisonicotinamido)phenyl)propanoic acid competitive binding assay; assay type: functional
Rattus norvegicus [19] = assay: Tmin in rat at 5 mg/kg, po; assay type: ADME, organism-based; set-up: dose 5 mg/kg, route oral; conditions: in vivo
Canis familiaris [20] = assay: Ex vivo receptor occupancy at VLA4 in dog at 5 mg/kg, po after 12 hrs by [125I]- -(S)-2-((2S,4R)-4-(azetidin-1-yl)-1-(3-iodophenylsulfonyl)pyrrolidine-2-carboxamido)-3-(4-(3,5-dichloroisonicotinamido)phenyl)propanoic acid competitive binding assay; assay type: functional, Canis lupus familiaris
Canis familiaris [21] = assay: Tmin in dog at 5 mg/kg, po; assay type: ADME, organism-based, Canis lupus familiaris; set-up: dose 5 mg/kg, route oral; conditions: in vivo
Rhesus monkey [22] = assay: Ex vivo receptor occupancy at VLA4 in rhesus monkey at 5 mg/kg, po after 8 hrs by [125I]- -(S)-2-((2S,4R)-4-(azetidin-1-yl)-1-(3-iodophenylsulfonyl)pyrrolidine-2-carboxamido)-3-(4-(3,5-dichloroisonicotinamido)phenyl)propanoic acid competitive binding assay; assay type: functional, Macaca mulatta
Rhesus monkey [23] = assay: Tmin in rhesus monkey at 5 mg/kg, po; assay type: ADME, organism-based, Macaca mulatta; set-up: dose 5 mg/kg, route oral; conditions: in vivo
[24] = Plasma Clearance in dog at 5 mg/kg, po; assay type: ADME, organism-based, Canis lupus familiaris; set-up: dose 5 mg/kg, route oral
[25] = Half life in dog at 5 mg/kg, po; assay type: ADME, organism-based, Canis lupus familiaris; set-up: dose 5 mg/kg, route oral; conditions: in vivo
[26] = Plasma Clearance in rhesus monkey at 5 mg/kg, po; assay type: ADME, organism-based, Macaca mulatta; set-up: dose 5 mg/kg, route oral
[27] = Half life in rhesus monkey at 5 mg/kg, po; assay type: ADME, organism-based, Macaca mulatta; set-up: dose 5 mg/kg, route oral; conditions: in vivo
Liver microsomes [28] = assay: Metabolic stability in human liver microsomes after 1 hr; assay type: ADME, Microsome
Liver microsomes [29] = assay: Metabolic stability in rat liver microsomes after 1 hr; assay type: ADME, Microsome
[30] = target: Integrin alpha-4 (Homo sapiens) (UniProt P13612); assay: Inhibition of human VLA4
Canis lupus familiaris = species on record: Canis lupus familiaris; assay: Inhibition of dog VLA4
Macaca mulatta = species on record: Macaca mulatta; assay: Inhibition of rhesus monkey VLA4
Rattus norvegicus [31] = species on record: Rattus norvegicus; assay: Inhibition of rat VLA4
[32] = Plasma Clearance in rat at 5 mg/kg, po; assay type: ADME, organism-based; set-up: dose 5 mg/kg, route oral
[33] = Half life in rat at 5 mg/kg, po; assay type: ADME, organism-based; set-up: dose 5 mg/kg, route oral; conditions: in vivo

O=C(Nc1ccc(C[C@H](NC(=O)[C@@H]2C[C@@H](N3CCC3)CN2S(=O)(=O)c2cc(Cl)cc(Cl)c2)C(=O)O)cc1)c1c(Cl)cncc1Cl
pIC50 (Integrin alpha-4 [1]): 10.10 | pIC50 (Integrin alpha-4 [2]): 9.70 | Activity (Rattus norvegicus [3]): 64% | clearance [4]: 65 mL/min/kg | half-life [5]: 1 h | Tmin (Rattus norvegicus [6]): 2 h | Activity (Canis familiaris [7]): 72% | clearance [8]: 29 mL/min/kg | half-life [9]: 0.5 h | Tmin (Canis familiaris [10]): 1 h | Activity (Rhesus monkey [11]): 87% | clearance [12]: 33 mL/min/kg | half-life [13]: 1.1 h | Tmin (Rhesus monkey [14]): 6 h | Activity (Rattus norvegicus [15]): 46% | Activity [16]: 77%

CCOC(=O)[C@H](Cc1ccc(NC(=O)c2c(Cl)cncc2Cl)cc1)NC(=O)[C@@H]1C[C@@H](NC2CCC2)CN1S(=O)(=O)c1cc(Cl)cc(Cl)c1
Activity (Rattus norvegicus [15]): 51% | pIC50 (Cytochrome P450 3A4): > 6.40

O=C(Nc1ccc(C[C@H](NC(=O)[C@@H]2C[C@@H](N3CCCC3)CN2S(=O)(=O)c2cc(Cl)cc(Cl)c2)C(=O)O)cc1)c1c(Cl)cncc1Cl
pIC50 (Integrin alpha-4 [1]): 10.00 | pIC50 (Integrin alpha-4 [2]): 9.70 | Activity [16]: 82%

N[C@@H]1C[C@@H](C(=O)N[C@@H](Cc2ccc(NC(=O)c3c(Cl)cncc3Cl)cc2)C(=O)O)N(S(=O)(=O)c2cc(Cl)cc(Cl)c2)C1
pIC50 (Integrin alpha-4 [1]): 10.05 | pIC50 (Integrin alpha-4 [2]): 9.40 | Activity [17]: 47%

CCOC(=O)[C@H](Cc1ccc(NC(=O)c2c(Cl)cncc2Cl)cc1)NC(=O)[C@@H]1C[C@@H](NC2CCC2)CN1S(=O)(=O)c1cccc(C#N)c1
Activity (Rattus norvegicus [18]): 77% | Tmin (Rattus norvegicus [19]): 0 h | Activity (Canis familiaris [20]): 97% | Tmin (Canis familiaris [21]): 12 h | Activity (Rhesus monkey [22]): 95% | Tmin (Rhesus monkey [23]): 0 h | pIC50 (Cytochrome P450 3A4): 5.77

O=C(Nc1ccc(C[C@H](NC(=O)[C@@H]2CCCN2S(=O)(=O)c2cc(Cl)cc(Cl)c2)C(=O)O)cc1)c1c(Cl)cncc1Cl
pIC50 (Integrin alpha-4 [1]): 10.15 | pIC50 (Integrin alpha-4 [2]): 8.82 | Activity [17]: 62%

O=C(Nc1ccc(C[C@H](NC(=O)[C@@H]2C[C@@H](NC3CCC3)CN2S(=O)(=O)c2cc(Cl)cc(Cl)c2)C(=O)O)cc1)c1c(Cl)cncc1Cl
pIC50 (Integrin alpha-4 [1]): 10.00 | pIC50 (Integrin alpha-4 [2]): 10.00 | Activity [16]: 82%

C[C@@]1(C(=O)N[C@@H](Cc2ccc(NC(=O)c3c(Cl)cncc3Cl)cc2)C(=O)O)CCCN1S(=O)(=O)c1cc(Cl)cc(Cl)c1
pIC50 (Integrin alpha-4 [1]): 9.96 | pIC50 (Integrin alpha-4 [2]): 7.31

N#Cc1cccc(S(=O)(=O)N2C[C@H](NC3CCC3)C[C@H]2C(=O)N[C@@H](Cc2ccc(NC(=O)c3c(Cl)cncc3Cl)cc2)C(=O)O)c1
Activity (Rattus norvegicus [18]): 67% | Tmin (Rattus norvegicus [19]): 0 h | Activity (Canis familiaris [20]): 83% | CL/F [24]: 29 mL/min/kg | half-life [25]: 0.5 h | Tmin (Canis familiaris [21]): 6 h | Activity (Rhesus monkey [22]): 88% | CL/F [26]: 33 mL/min/kg | half-life [27]: 1.1 h | Tmin (Rhesus monkey [23]): 0 h | Stability (Liver microsomes [28]): 56 pmol/mg | Stability (Liver microsomes [29]): 39 pmol/mg | IC90 [30]: 0.13 nM | IC90 (Canis lupus familiaris): 0.19 nM | IC90 (Macaca mulatta): 0.21 nM | IC90 (Rattus norvegicus [31]): 0.4 nM | Activity [16]: 64% | CL/F [32]: 65 mL/min/kg | half-life [33]: 1 h

CCOC(=O)[C@H](Cc1ccc(NC(=O)c2c(Cl)cncc2Cl)cc1)NC(=O)[C@@H]1C[C@@H](N2CCC2)CN1S(=O)(=O)c1cc(Cl)cc(Cl)c1
Activity (Rattus norvegicus [15]): 62%

O=C(Nc1ccc(C[C@H](NC(=O)[C@@H]2C[C@@H](N3CCCCC3)CN2S(=O)(=O)c2cc(Cl)cc(Cl)c2)C(=O)O)cc1)c1c(Cl)cncc1Cl
pIC50 (Integrin alpha-4 [1]): 10.05 | pIC50 (Integrin alpha-4 [2]): 9.52 | Activity [16]: 89%

O=C(Nc1ccc(C[C@H](NC(=O)[C@@H]2C[C@H](N3CCC3)CN2S(=O)(=O)c2cc(Cl)cc(Cl)c2)C(=O)O)cc1)c1c(Cl)cncc1Cl
pIC50 (Integrin alpha-4 [1]): 9.70 | Activity [17]: 15%
